{
  "source": "patent US20260085076A1",
  "about": "“CRYSTAL FORM OF AROMATIC HETEROCYCLIC COMPOUND, COMPOSITION THEREOF, PRODUCTION METHOD THEREOF AND USES THEREOF” (Hangzhou Yuhong Pharmaceutical Technology Co., Ltd., priority 2023, published 2026)",
  "key": {"[1]": {"target": "T1, JAK3 kinase (Homo sapiens, UniProt P52333)", "T1 sequence (P52333 1-1124)": "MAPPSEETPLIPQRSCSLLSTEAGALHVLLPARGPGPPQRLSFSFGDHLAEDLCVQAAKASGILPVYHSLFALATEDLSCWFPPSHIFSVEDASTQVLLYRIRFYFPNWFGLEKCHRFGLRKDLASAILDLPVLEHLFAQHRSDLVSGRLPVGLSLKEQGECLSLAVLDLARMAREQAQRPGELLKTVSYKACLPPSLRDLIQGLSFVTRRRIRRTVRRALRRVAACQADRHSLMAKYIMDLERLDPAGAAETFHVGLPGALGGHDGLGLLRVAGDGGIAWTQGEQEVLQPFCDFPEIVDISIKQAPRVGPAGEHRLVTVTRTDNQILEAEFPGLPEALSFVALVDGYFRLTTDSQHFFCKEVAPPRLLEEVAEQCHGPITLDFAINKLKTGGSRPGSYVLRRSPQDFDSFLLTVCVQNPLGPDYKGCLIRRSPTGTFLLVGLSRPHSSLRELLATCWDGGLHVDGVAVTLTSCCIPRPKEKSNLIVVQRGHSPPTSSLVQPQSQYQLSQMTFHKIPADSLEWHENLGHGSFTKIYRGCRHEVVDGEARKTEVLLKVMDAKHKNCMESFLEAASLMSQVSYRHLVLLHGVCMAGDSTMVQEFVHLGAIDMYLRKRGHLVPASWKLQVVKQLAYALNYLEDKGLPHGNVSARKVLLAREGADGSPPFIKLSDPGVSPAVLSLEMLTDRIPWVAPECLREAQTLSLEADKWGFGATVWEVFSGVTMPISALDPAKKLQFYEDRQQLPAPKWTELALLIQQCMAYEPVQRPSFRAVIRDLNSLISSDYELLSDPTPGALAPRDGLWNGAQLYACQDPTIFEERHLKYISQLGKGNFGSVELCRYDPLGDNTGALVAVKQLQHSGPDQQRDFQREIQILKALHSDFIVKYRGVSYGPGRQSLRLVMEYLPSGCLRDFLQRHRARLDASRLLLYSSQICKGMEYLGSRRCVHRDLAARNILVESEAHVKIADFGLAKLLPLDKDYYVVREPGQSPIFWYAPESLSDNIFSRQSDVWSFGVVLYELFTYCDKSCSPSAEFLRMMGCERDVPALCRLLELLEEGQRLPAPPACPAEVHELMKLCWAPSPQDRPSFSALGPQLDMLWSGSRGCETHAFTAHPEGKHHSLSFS", "assay": "Mobility shift assay, JAK3 kinase inhibitory activity", "type": "biochemical", "conditions": "Caliper EZ Reader", "procedure": "Mobility shift assay was used to detect the in vitro inhibitory activity of the test compounds (listed below) on JAK3 kinase activity. Cerdulatinib (supplier: selleckchem; Article number: S7634) was used as a positive control compound.\nCompound was dissolved in 100% DMSO to formulate a 10 mM stock solution and stored in a −20° C. refrigerator away from light.\n(1) 1×Kinase buffer was prepared.\nAfter being gradient dilution to a 100-fold final concentration, 250 nL of solutions were transferred to a 384-well plate using Echo550. 250 nL of 100% DMSO were added to each of the negative control wells and the positive control wells, respectively.\n(3) 2.5 times a final concentration of kinase solution was prepared with 1×Kinase buffer. […]\n(10) The conversion rate was read by Caliper EZ Reader.\nWherein: Conversion %_sample is the conversion rate reading of the sample; Conversion %_min: the mean value of the negative control wells, representing the conversion rate reading of the wells without enzyme activity; Conversion %_max: the mean value of the positive control wells, representing the conversion rate reading of the wells without compound inhibition; % Inhibition represents the percentage inhibition rate. […]"}, "[2]": {"test_system": "mouse model of acute radiation-induced lung injury", "assay": "Acute radiation-induced lung injury in mice", "type": "in vivo, C57BL/6 mice", "conditions": "30 mg/kg q.d., 22.5 Gy whole lung, three weeks after modeling", "method": "Eighteen female C57BL/6 mice were divided randomly into three groups: blank control group, simple irradiation group, and irradiation+ drug YZ001052 (30 mg/kg q. d) intervention group, with 6 mice in each group.\nThe mice were anesthetized with 1% sodium pentobarbital by intraperitoneal injection, and irradiated the whole lung with 22.5 Gy in a single shot using 220 KV X-rays through the Small Animal Precision Radiotherapy Research Platform (SARRP). After irradiation, the mice were housed in a normal manner.\nThree weeks after modeling, the mice were anesthetized and dissected. The lung tissues were exposed and the left lung was ligated, an open tracheotomy was performed, the lung was lavaged with cold PBS, and the alveolar lavage fluid (BALF) was collected and centrifuged at 4° C.\nThe supernatant was collected to detect the content of inflammatory factor TNF-α by ELISA.\nResuspend the bronchoalveolar lavage fluid cell pellet in 200 μL PBS for white blood cell (WBC) counting."}, "[3]": {"test_system": "p-STAT5 under IL-15 stimulation in PBMC (JAK-STAT pathway)", "assay": "p-STAT5 ELISA in IL-15 stimulated hPBMC cells", "type": "cell-based, human", "conditions": "Homo sapiens, PBMC, 45 min compound, 30 min IL-15, ELISA", "method": "Based on the mechanism of JAK-STAT pathway, the effect of the compounds on the JAK-STAT pathway were evaluated by using cytokine IL-15 to stimulate hPBMC cells, and using the downstream STAT5 phosphorylation level as the detection index.\n1. PBMC cell counting plate: 90 μL PBMC was seeded in a 96-well plate (PBMC cell density 80,000/well).\n2. Treatment with test compounds: After cells being seeded, drug treatment was carried out immediately. The drugs to be tested at 5 μL/well (final concentrations 1, 0.5, 0.1, 0.05, 0.01, and 0.005 μM) were incubated at 37° C. for 45 min.\n3. Cytokine IL-15 stimulation: The cells were stimulated by 5 μL IL-15, and incubated at 37° C. for 30 min.\n4. Protein sample collection: The cells were collected in a centrifuge tube and centrifuged for 5 minutes. The supernatant was discarded and cells were lysed with 1× Cell Extraction Buffer PTR.\n5. p-STAT5 detection: Perform detection according to the requirements of the ELISA kit.\nExperimental results: IC50 values of compounds on p-STAT5 under IL-15 stimulation in PBMC"}, "[4]": {"test_system": "collagen-induced arthritis model in mice", "assay": "Collagen-induced arthritis model in mice (mCIA)", "type": "in vivo, DBA/1J mice", "conditions": "50 mg/kg once a day, FIG. 77", "method": "1. Construction of collagen-induced arthritis model in mice (mCIA) Experimental purpose: To test the immunosuppressive activity of YZ001052 in the mCIA model. PF-06651600 was used as a positive control compound.\nComplete and incomplete Freund's adjuvants with chicken type II collagen solution were mixed in equal proportions to form emulsions. Except for the blank control group, a mixture of complete Freund's adjuvant and chicken type II collagen solution was injected subcutaneously into the base of the tail and thigh of mice on Day 0. Each mouse was injected subcutaneously with 100 μL at the base of the tail, and injected 50 μL subcutaneously at the base of both thighs (primary immunization). On day 21, mice were injected subcutaneously with 200 μL of a mixture of incomplete Freund's adjuvant and chicken type II collagen as a booster injection (second immunization). Arthritis was considered to occur if the clinical score of at least one limb was >2 points. Paw thickness measurement: Using a vernier caliper to measure the thickness of the left and right hind feet of the mouse and record it, which is the degree of paw swelling. The detection frequency was once every 3 days."}, "[5]": {"test_system": "SRBC mouse model", "assay": "SRBC-induced delayed-type hypersensitivity (DTH) in mice", "type": "in vivo, Balb/c mice", "conditions": "100 mg/kg gavage once a day, day 0 to day 6, FIG. 76", "method": "Drug formulation: The compound was added to 0.5% CMC-Na solution to formulate a drug suspension (dosage is 10 mg/mL).\nInduction and administration of delayed-type hypersensitivity (DTH): 30 male Balb/c mice were weighed and randomly divided into 6 groups according to body weight, with 5 mice in each group. The experimental period lasted for 7 days. On day 0, mice were sensitized by subcutaneous injection of sheep red blood cells (SRBC). The mice were performed gavage administration at 100 mg/kg (once a day) from day 0 to day 6. On day 6, the mice were injected SRBC into the right hind foot pad for challenge. Measurements were taken on the 7th day of the experiment, and the experiment was concluded.\nPharmacodynamic detection indicators of disease models: the detection and observation indicators are the redness and swelling degree and thickness of the paw pads of SRBC-induced mice. The thickness of the right paw was measured on day 6 before the SRBC injection challenge as the baseline. The thickness of the right paw was measured again at the end of the experiment, the difference in paw thickness before and after the second injection was calculated.\nStatistical analysis: The experimental data were expressed as mean±standard deviation (Mean±SD). All data were statistically analyzed using T-test, with P<0.05 considered statistically significant."}, "[6]": {"test_system": "DSS-induced inflammatory bowel disease model in mice", "assay": "DSS-induced mouse inflammatory bowel disease model", "type": "in vivo, C57BL/6 mice", "conditions": "50 mg/kg once a day, 5% DSS, day 8, compared with model group, FIG. 78", "method": "Experimental purpose: To test the immunosuppressive activity of YZ001052 in DSS-induced inflammatory bowel disease model in mice. PF-06651600 was used as a positive control compound.\n50 g of DSS was added 1000 mL of sterile water to formulate a 5% DSS solution, and the solution was filtered with a 0.22 μm filter membrane. Starting from day 0, the blank group was gave drinking water without DSS, and the other experimental groups were gave drinking water containing 5% DSS. All mice were sacrificed on day 8. After the experiment, the colon was collected, photographed and measured for length. The data were analyzed according to Statistics."}},
  "data": [
    {"smiles": "C=CC(=O)N1CCc2c(c(-c3ccnc4[nH]ccc34)nn2C)C1", "note": "[YZ001052, 1-(1-methyl-3-(1H-pyrrolo[2,3-b]pyridin-4-yl)-1,4,6,7-tetrahydro-5H-pyrazolo[4,3-c]pyridin-5-yl)prop-2-en-1-one]", "values": [
      {"measurement": "IC50", "setting": "[1]", "value": 0.25, "unit": "nM"},
      {"measurement": "TNF-α level in bronchoalveolar lavage fluid", "setting": "[2]; FIG. 79", "value": "good inhibitory effect"},
      {"measurement": "number of inflammatory cell infiltration in the lungs (white blood cells in BALF)", "setting": "[2]; FIG. 80", "value": "significantly reduce"},
      {"measurement": "IC50", "setting": "[3]", "value": 10.7, "unit": "nM"},
      {"measurement": "paw swelling", "setting": "[4]; CIA mice", "value": "improved to varying degrees"},
      {"measurement": "arthritis score", "setting": "[4]; compared with the model group", "value": "significantly decreased"},
      {"measurement": "immunosuppressive effect on SRBC-induced delayed-type hypersensitivity (right paw thickness)", "setting": "[5]", "value": "significant immunosuppressive effects"},
      {"measurement": "colorectal length", "setting": "[6]", "value": "significantly increased"}
    ]}
  ]
}
